In patent publication US20250034216A1, “STEREOSELECTIVE COVALENT LIGANDS FOR ONCOGENIC AND IMMUNOLOGICAL PROTEINS” (The Scripps Research Institute, priority 2021, published 2025):
Each block holds one molecule with its values, some of them ahead of it. Peptide text beside a SMILES is read from it. * marks the point of attachment. Cbz = O=C(OCc1ccccc1)*

What was measured:
[1] = system: SF3B1 interacting proteins; assay: SF3B1 co-immunoprecipitation-MS; type: cell-based, human; settings: HEK293T cells, 5 μM WX-02-23 or 10 nM pladienolide B, 3 h
Description: HEK293T cells were treated in situ with DMSO, 5 μM of WX-02-23/WX-02-43, or 10 nM pladienolide B for 3 hours. Cells were harvested, washed with ice-cold PBS, and lysed in ColP lysis buffer (0.5% NP-40, 100 mM EPPS, 150 mM NaCl, cOmplete protease inhibitor). Lysates centrifuged at 16,000 g for 3 minutes, normalized to 2.0 mg/mL and 500 μL of each lysate was aliquoted to a clean eppendorf tube.
Lysates were incubated with 5 μL of anti-IgG or anti-SF3B1 (CST) for 2 hours at 4 C, followed by 1 hour with 25 μL of protein-A agarose beads. Bead were washed twice with ColP lysis buffer, and then twice with 100 mM EPPS, followed by elution with 8 M urea in EPPS at 65 C for 10 min. […] Samples were then trypsinized at 37 C overnight (2 ug of trypsin per sample), then TMT labeled and desalted.

22Rv1 cells = assay: Proliferation assay (CellTiter Glo); type: cell-based, human; settings: 72 h
Description: Cells were seeded at 5000 cells per well (50 μL medium) in 96-well flat bottom white wall plates. After 24 h, 50 μL of medium containing DMSO or compound dilutions (2× final concentration from 1000× stocks) were added to the wells. At the time of compound addition, a reference plate to determine the cell population density at time 0 (TO) was assayed using CellTiter Glo reagent (50 μL added to each well). After 72 h in culture, the remaining plates were assayed using CellTiter Glo. After 30 min of shaking at room temperature, luminescence was analyzed using a CLARIOstar (BMG Labtech) plate reader. Raw values were normalized using GraphPad PRISM software version 9.0.0. Lines of best fit were generated using a four-parameter variable slope least squares regression.

[2] = system: mRNA splicing in 22Rv1 cells; assay: RNA sequencing, alternative splicing (rMATS); type: cell-based, human; settings: 8 hr, RNA-seq
Description: RNA sequencing libraries were prepared using the NEBNext Ultra II RNA Library Prep Kit for Illumina following manufacturer's instructions (NEB, Ipswich, MA, USA). mRNAs were first enriched with Oligo(dT) beads. Enriched mRNAs were fragmented for 15 minutes at 94° C. First strand and second strand cDNAs were subsequently synthesized. cDNA fragments were end repaired and adenylated at 3′ends, and universal adapters were ligated to cDNA fragments, followed by index addition and library enrichment by limited-cycle PCR. The sequencing libraries were validated on the Agilent TapeStation (Agilent Technologies, Palo Alto, CA, USA), and quantified by using Qubit 2.0 Fluorometer (Invitrogen, Carlsbad, CA) as well as by quantitative PCR (KAPA Biosystems, Wilmington, MA, USA). FASTQ files were first trimmed using Trim_galore (v0.6.4) to remove sequencing adapters and low quality (Q<15) reads. Trimmed sequencing reads were aligned to the human Hg19 reference genome (GENCODE, GRCh37.p13) using STAR (v2.7.5). SAM files were subsequently converted to BAM files, sorted, and indexed using samtools (v1.9). […] Read counting across genomic features was performed using featureCounts (part of the subread package; v1.5.0) using the following parameters: -p -T 20 -O -F GTF -t exon. […]
For quantification of alternative RNA splicing, BAM files generated by STAR/Samtools were analyzed using rMATS (v4.1.1) using the GENCODE (v19) GTF annotation for Hg19 (GRCh37.p13) and the following parameters: -t paired --libType fr-unstranded—readLength 150—novelSS. To utilize reads shorted than 150b.p. resulting from adapter and/or QC trimming by trim_galore, rMATS was programmed to accept soft-clipped reads of variable length. Enumeration of isoform counts was performed using only reads that span the splice junction directly. To identify high confidence AS events, events were considered significant if (i) the inclusion level difference was greater than 20% compared to DMSO, (ii) the False Discovery Rate (FDR) was smaller than 0.05, and (iii) there were a minimum of 20 reads mapping to the splice junction. […]

p27 = assay: anti-p27 western blot; type: cell-based, human; settings: 22Rv1 cells, 24 h
[3] = target: T1, recombinant FLAG-PSME1 (PSME1_C22) (Homo sapiens, UniProt Q06323); assay: Gel-based ABPP for PSME1 cysteine engagement; type: binding; settings: HEK293T lysates, WT or C22A FLAG-PSME1, 2.5 μM, 30 min
T1 construct: FLAG (C); expressed in transfected cells; host or cells: HEK293T (lysate treated in vitro)
T1 sequence (Q06323 whole entry): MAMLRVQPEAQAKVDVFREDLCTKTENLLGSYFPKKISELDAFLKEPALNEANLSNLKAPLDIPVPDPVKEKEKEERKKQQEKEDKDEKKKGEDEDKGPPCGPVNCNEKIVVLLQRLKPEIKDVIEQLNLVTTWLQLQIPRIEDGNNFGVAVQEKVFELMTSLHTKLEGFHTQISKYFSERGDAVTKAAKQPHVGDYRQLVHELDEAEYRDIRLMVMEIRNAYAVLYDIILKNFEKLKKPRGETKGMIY
Description: C-terminally FLAG-tagged PSME1 WT or C22A were transiently expressed in HEK293T cells, harvested 48 hours later, then cells were divided into aliquots, flash frozen and stored at −80 C. On the day of the experiment, an aliquot of cells were thawed, lysed by sonication in ice-cold PBS supplemented with cOmplete protease inhibitors (1 tablet/10 mL of PBS). normalized to 2.0 mg/mL, and divided into 25 μL aliquots. 1 μL of DMSO or compound (25× stock) was incubated with lysates for 1.5 hours at RT, followed by incubation with 1 μL of 62.5 μM MY-11B click probe (final concentration […]) for an additional 30 minutes. Reagents for the CuAAC click reaction were pre-mixed prior to addition to the samples. After 1 hour of click labeling, 4×SDS running buffer was added to samples, which were then analyzed by SDS-PAGE. ImageJ was used to quantify rhodamine band intensities, and GraphPad PRISM Version 9.0.0 was used to generate IC50 curves (four-parameter variable slope least squares regression).

SF3B1 (~150 kDa protein) = target: T2, SF3B1 (~150 kDa protein) (Homo sapiens, UniProt O75533+Q7RTV0); assay: Gel-based ABPP for SF3B1 cysteine engagement; type: binding; settings: 22Rv1 cells, 1 μM alkyne probe, 1 h
T2 construct: Cysteine engagement data from 22Rv1 cells treated; endogenous in cells; host or cells: 22Rv1
T2 sequence (O75533 whole entry): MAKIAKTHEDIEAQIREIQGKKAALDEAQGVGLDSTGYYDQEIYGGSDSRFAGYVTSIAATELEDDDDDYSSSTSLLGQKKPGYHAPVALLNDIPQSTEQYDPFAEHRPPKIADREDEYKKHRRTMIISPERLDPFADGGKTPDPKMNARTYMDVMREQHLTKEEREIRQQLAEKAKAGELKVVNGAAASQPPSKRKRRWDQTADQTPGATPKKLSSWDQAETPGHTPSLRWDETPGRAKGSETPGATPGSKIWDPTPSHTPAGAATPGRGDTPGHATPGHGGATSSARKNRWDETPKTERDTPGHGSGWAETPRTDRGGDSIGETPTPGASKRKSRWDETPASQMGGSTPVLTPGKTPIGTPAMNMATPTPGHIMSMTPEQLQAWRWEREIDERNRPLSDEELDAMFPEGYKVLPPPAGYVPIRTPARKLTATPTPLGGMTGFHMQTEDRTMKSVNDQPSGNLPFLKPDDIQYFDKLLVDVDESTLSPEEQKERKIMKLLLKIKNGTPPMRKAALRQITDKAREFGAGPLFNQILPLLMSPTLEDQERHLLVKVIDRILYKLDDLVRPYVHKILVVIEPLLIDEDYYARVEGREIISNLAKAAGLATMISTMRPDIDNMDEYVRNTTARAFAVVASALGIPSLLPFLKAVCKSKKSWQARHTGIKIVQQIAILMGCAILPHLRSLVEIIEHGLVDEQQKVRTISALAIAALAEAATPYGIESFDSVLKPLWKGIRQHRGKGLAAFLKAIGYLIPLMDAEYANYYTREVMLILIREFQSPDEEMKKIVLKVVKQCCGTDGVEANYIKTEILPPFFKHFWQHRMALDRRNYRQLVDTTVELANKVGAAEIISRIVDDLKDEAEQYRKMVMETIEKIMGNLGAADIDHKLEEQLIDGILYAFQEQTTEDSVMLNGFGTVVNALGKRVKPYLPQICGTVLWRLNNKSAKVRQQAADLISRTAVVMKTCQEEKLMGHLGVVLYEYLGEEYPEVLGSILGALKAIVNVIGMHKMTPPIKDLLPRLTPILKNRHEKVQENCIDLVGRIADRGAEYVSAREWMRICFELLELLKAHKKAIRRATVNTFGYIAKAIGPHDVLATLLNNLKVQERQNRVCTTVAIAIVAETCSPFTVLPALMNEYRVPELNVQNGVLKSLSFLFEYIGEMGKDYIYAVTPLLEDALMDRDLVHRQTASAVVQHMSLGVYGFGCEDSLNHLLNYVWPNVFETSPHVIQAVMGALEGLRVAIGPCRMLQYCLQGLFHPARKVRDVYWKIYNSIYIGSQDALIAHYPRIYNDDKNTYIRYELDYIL
T2 sequence (Q7RTV0 whole entry): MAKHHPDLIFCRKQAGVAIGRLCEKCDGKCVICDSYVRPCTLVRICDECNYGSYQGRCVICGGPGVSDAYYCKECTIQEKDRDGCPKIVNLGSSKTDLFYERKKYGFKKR
T2 sequence (Q15393 whole entry partner): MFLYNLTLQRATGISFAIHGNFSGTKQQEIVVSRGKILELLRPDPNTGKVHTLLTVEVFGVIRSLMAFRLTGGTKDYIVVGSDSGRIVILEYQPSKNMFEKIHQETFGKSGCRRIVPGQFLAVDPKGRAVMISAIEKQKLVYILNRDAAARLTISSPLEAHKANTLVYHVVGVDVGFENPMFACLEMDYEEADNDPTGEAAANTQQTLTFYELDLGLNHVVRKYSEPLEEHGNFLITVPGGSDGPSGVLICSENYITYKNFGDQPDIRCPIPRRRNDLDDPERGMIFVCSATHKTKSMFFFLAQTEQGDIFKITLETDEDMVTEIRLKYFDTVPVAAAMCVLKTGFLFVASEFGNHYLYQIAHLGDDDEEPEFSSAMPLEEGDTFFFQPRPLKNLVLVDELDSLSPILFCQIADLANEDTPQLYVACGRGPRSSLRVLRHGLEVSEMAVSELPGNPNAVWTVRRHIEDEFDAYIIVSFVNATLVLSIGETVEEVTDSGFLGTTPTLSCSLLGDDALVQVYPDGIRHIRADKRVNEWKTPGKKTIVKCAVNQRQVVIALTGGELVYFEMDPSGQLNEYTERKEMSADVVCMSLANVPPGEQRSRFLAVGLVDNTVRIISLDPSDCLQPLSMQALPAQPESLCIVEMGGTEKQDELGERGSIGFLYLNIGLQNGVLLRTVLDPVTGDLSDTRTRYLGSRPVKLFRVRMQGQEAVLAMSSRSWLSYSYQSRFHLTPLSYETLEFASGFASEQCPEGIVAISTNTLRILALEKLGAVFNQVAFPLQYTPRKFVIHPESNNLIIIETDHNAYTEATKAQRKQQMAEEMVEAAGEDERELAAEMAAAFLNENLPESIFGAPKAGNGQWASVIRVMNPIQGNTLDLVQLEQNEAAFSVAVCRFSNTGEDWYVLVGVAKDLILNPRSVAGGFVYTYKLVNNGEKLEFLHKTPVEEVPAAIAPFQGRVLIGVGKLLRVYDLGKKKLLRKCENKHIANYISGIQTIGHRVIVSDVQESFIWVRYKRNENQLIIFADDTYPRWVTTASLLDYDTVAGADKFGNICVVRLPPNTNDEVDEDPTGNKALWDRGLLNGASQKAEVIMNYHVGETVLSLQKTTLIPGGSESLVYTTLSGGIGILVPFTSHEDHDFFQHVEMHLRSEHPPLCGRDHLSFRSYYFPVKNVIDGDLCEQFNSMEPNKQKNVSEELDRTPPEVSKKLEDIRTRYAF
T2 sequence (Q9BWJ5 whole entry partner): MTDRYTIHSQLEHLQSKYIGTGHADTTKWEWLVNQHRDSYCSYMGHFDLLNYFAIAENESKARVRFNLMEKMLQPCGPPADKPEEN
Description: 22Rv1 cells were treated with indicated compounds for 24 h, chased with click probe for 1 h in situ, harvested and lysed in PBS with protease inhibitors (cOmplete), and then normalized to 2.0 mg/mL. Reagents for the CuAAC click reaction were pre-mixed prior to addition to the samples (3 μL of click reaction mix for 25 μL of lysate). After 1 hour of click labeling, 4×SDS running buffer was added to samples, which were then analyzed by SDS-PAGE.

[4] = system: overall MHC-I presentation in E.G7-Ova cells; assay: FACS analysis with citric acid wash; type: cell-based, mouse; settings: 4 h treatment, recovery up to 4 h
Description: (§1) E.G7-Ova cells (2 million/mL) were treated with compounds for 4 hours, washed with PBS, and then washed with 1 mL of 131 mM citric acid for 2 minutes, quenched with 1 mL 66 mM NaH2PO4, and then washed with PBS 3 times. Cells were then resuspended in warm RPMI and allowed to recover for the indicated period, after which cells were washed with PBS and transferred to 96 well plates for staining. Each well was washed with 200 μL PBS, and then stained for 20 minutes with 50 μL of staining solution: 1:1000 fixable near-IR LIVE/DEAD stain (Invitrogen) and 1:200 dilution of anti-SIINFEKL (BioLegend) or anti-Kb (BioLegend) antibody in FACS buffer (2% FBS in PBS supplemented with PenStrep and sterile filtered). Additional wells were used as unstained or singly-stained controls. After staining, cells were washed with PBS, then fixed in 200 μL 4% paraformaldehyde in PBS for 15 minutes. Cells were resuspended in 75 μL FACS buffer and analyzed on a Novocyte flow cytometer. The corresponding data in FIG. 2J are presented as the average percentage of median fluorescence intensity relative to DMSO treated control±SD from n=4 replicates. The corresponding data in FIG. 2K are presented as the average percentage of MFI relative to DMSO treated control±SD from n=3 replicates. Statistical analysis was performed using GraphPad PRISM Version 9.0.0.

[5] = system: SIINFEKL presentation in E.G7-Ova cells; assay: FACS analysis with citric acid wash; type: cell-based, mouse; settings: 4 h treatment, recovery up to 4 h
Description: as §1

Molecule: pladienolide B [reference compound]
SF3B1 interactions (DDX42 association) [1]: similar, but not identical reshaping of SF3B1 interactions
anti-proliferative effect (22Rv1 cells): strong anti-proliferative activity
mRNA splicing changes [2]: induction of both intron retention and exon skipping events
p27 expression (p27): induced expression of p27

Molecule: C#Cc1ccc([C@H]2CN(C(=O)C=C)[C@H]2C(=O)Nc2cccc3cccnc23)cc1 [MY-11B, (2R,3S)-1-acryloyl-3-(4-ethynylphenyl)-N-(quinolin-8-yl)azetidine-2-carboxamide]
alkyne probe labeling of PSME1_C22 (CuAAC, azide-rhodamine) [3]: site-specific and stereoselective engagement

alkyne probe labeling of ~150 kDa protein (SF3B1 (~150 kDa protein)): labeled an ˜150 kDa protein
Molecule: C#CCOc1ccc2[nH]c3c(c2c1)C[C@@H](C(=O)OC)N(C(=O)C=C)[C@@H]3c1ccc2c(c1)OCO2 [WX-01-10, methyl (1R,3S)-2-acryloyl-1-(benzo[d][1,3]dioxol-5-yl)-6-(prop-2-yn-1-yloxy)-2,3,4,9-tetra-hydro-1H-pyrido[3,4-b]indole-3-carboxylate]

Molecule: CC(C)C[C@@H](C=O)NC(=O)[C@H](CC(C)C)NC(=O)[C@H](CC(C)C)NC(=O)OCc1ccccc1 [MG132, reference compound] (Cbz-Leu-Leu-Leu-aldehyde)
overall MHC-I presentation after acid wash [4]: suppressed both SIINFEKL peptide and MHC-I presentation
SIINFEKL presentation after acid wash [5]: suppressed both SIINFEKL peptide and MHC-I presentation
